{
  "source": "paper PMC7775502",
  "about": "“Molecular Screening Strategy to Identify a Non-invasive Delivery Mechanism for the Treatment of Middle Ear Disorders” (Frontiers in Medicine, 2020)",
  "origin": "cited, not measured here",
  "key": {"[1]": {"system": "intact tympanic membrane (TM)", "conditions": "peptide phage, incubation 1 h on the exterior surface of the TM, ref Kurabi et al. ([26])", "from_the_text": "Table 1 The sequences and ME recovery of the trans-TM, 12-mer backbone peptides (TMT-2 and TMT-3) plus the top 18-mer peptide phages from the 18-mer screen. | column: Mean recovery from ME (PFUs)"}, "human TM": {"system": "human TM", "conditions": "in vitro two-chamber assay, discarded TM fragments from patients undergoing TM repair; ref [28]", "from_the_text": "(§1) We first tested trans-TM phage TMT-3 transport across TMs from NTHi-infected MEs of rats as well as from rats with normal MEs."}, "rat TM": {"system": "rat TM", "conditions": "in vitro two-chamber assay, ref [28]", "from_the_text": "as §1"}, "rabbit TM fragments": {"system": "rabbit TM fragments", "conditions": "in vitro two-chamber assay, uninfected MEs; ref [28]", "from_the_text": "as §1"}, "[2]": {"system": "intact TM of ex vivo ME bulla", "conditions": "review of the authors' earlier work", "protocol": "In order to learn more about the mechanisms of phage transport phenomena, several experiments were designed to evaluate the impact of concentration, temperature, and oxygen levels on transport across the TM. […] Next, we tested the sensitivity of transport to oxygen deprivation and temperature using the ex vivo, intact ME bulla. When ME recovery of phage TMT-3 was assessed at various times after death, transport was observed up to 6 h postmortem, after which it ceased. Wh ..."}, "guinea pig TM fragments": {"system": "guinea pig TM fragments", "set-up": "method as in PMID 30087425", "conditions": "in vitro two-chamber assay, uninfected MEs; ref [28]"}},
  "data": [
    {"sequence": "EGHLFPSADSTKTTHLTL [TMT-3(18)-1, M13 bacteriophage expressing 18-mer trans-TM peptide […] on pIII protein]", "values": [
      {"measurement": "Mean recovery from ME (PFUs)", "setting": "[1]", "value": "90,000 PFUs"}
    ]},
    {"sequence": "KISVYRSADSTKTTHLTL [TMT-3(18)-2, M13 bacteriophage expressing 18-mer trans-TM peptide […] on pIII protein]", "values": [
      {"measurement": "Mean recovery from ME (PFUs)", "setting": "[1]", "value": "40,000 PFUs"}
    ]},
    {"sequence": "LANNNLTLSPKMPGGGYW [TMT-2(18)-1, M13 bacteriophage expressing 18-mer trans-TM peptide […] on pIII protein]", "values": [
      {"measurement": "Mean recovery from ME (PFUs)", "setting": "[1]", "value": 120, "unit": "PFUs"}
    ]},
    {"sequence": "SADSTKTTHLTL [TMT-3, M13 bacteriophage expressing 12-mer trans-TM backbone peptide […] on pIII protein]", "values": [
      {"measurement": "Transport across human TM", "setting": "human TM", "value": "comparable levels"},
      {"measurement": "Transport across TMs from NTHi-infected MEs versus normal MEs", "setting": "rat TM; 1.5 mm chambers, rat TMs", "value": "no difference in transport"},
      {"measurement": "Transport across uninfected rat TM fragments compared with other species", "setting": "rat TM; uninfected MEs", "value": "similar"},
      {"measurement": "Transport across uninfected rabbit TM fragments compared with other species", "setting": "rabbit TM fragments", "value": "similar"},
      {"measurement": "Transport at lowered bulla temperature", "setting": "[2]; 4°C, transport over 1 h", "value": "almost entirely eliminated"},
      {"measurement": "Time after death up to which transport was observed", "setting": "[2]; ME recovery of phage at various times postmortem, transport ceased afterwards", "value": "up to 6 h"},
      {"measurement": "Transport across uninfected guinea pig TM fragments compared with other species", "setting": "guinea pig TM fragments", "value": "similar"},
      {"measurement": "Mean recovery from ME (PFUs)", "setting": "[1]", "value": "10,800 PFUs"}
    ]},
    {"sequence": "SPTIFSTLSPKMPGGGYW [TMT-2(18)-2, M13 bacteriophage expressing 18-mer trans-TM peptide […] on pIII protein]", "values": [
      {"measurement": "Mean recovery from ME (PFUs)", "setting": "[1]", "value": "12,000 PFUs"}
    ]},
    {"sequence": "TEVTSRSADSTKTTHLTL [TMT-3(18)-3, M13 bacteriophage expressing 18-mer trans-TM peptide […] on pIII protein]", "values": [
      {"measurement": "Mean recovery from ME (PFUs)", "setting": "[1]", "value": 280, "unit": "PFUs"}
    ]},
    {"sequence": "TLSPKMPGGGYW [TMT-2, M13 bacteriophage expressing 12-mer trans-TM backbone peptide […] on pIII protein]", "values": [
      {"measurement": "Mean recovery from ME (PFUs)", "setting": "[1]", "value": "5,900 PFUs"}
    ]},
    {"sequence": "VPQGATTLSPKMPGGGYW [TMT-2(18)-3, M13 bacteriophage expressing 18-mer trans-TM peptide […] on pIII protein]", "values": [
      {"measurement": "Mean recovery from ME (PFUs)", "setting": "[1]", "value": "3,000 PFUs"}
    ]}
  ]
}
